What was measured:
[1] = biological target: PDGFRβ (Rattus norvegicus (Rat), UniProt Q05030); assay: PDGFRβ Cellular Assay (PDGFRb P-Y751 HTRF in A10 cells stimulated with PDGF-BB); assay type: cell-based; conditions: read-out: PDGFR Cellular IC50
Outline: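 Phospho-Y751 PDGFRβ was measured by HTRF in lysates of A10 rat cells. Cells received compound for 3 hours before PDGF-BB stimulation (100 ng/mL working stock).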

[2] = biological target: VEGFR2, unphosphorylated (Homo sapiens (Human), UniProt P35968); assay: VEGFR ADP GLO Assay; assay type: biochemical
[3] = biological target: Tb-labeled inactive PDGFRβ (Homo sapiens (Human), UniProt P09619); assay: PDGFRβ LanthaScreen Assay; assay type: binding; conditions: read-out: PDGFR Lantha IC50
Tb-labeled inactive PDGFRβ, sequence (P09619 33-1106): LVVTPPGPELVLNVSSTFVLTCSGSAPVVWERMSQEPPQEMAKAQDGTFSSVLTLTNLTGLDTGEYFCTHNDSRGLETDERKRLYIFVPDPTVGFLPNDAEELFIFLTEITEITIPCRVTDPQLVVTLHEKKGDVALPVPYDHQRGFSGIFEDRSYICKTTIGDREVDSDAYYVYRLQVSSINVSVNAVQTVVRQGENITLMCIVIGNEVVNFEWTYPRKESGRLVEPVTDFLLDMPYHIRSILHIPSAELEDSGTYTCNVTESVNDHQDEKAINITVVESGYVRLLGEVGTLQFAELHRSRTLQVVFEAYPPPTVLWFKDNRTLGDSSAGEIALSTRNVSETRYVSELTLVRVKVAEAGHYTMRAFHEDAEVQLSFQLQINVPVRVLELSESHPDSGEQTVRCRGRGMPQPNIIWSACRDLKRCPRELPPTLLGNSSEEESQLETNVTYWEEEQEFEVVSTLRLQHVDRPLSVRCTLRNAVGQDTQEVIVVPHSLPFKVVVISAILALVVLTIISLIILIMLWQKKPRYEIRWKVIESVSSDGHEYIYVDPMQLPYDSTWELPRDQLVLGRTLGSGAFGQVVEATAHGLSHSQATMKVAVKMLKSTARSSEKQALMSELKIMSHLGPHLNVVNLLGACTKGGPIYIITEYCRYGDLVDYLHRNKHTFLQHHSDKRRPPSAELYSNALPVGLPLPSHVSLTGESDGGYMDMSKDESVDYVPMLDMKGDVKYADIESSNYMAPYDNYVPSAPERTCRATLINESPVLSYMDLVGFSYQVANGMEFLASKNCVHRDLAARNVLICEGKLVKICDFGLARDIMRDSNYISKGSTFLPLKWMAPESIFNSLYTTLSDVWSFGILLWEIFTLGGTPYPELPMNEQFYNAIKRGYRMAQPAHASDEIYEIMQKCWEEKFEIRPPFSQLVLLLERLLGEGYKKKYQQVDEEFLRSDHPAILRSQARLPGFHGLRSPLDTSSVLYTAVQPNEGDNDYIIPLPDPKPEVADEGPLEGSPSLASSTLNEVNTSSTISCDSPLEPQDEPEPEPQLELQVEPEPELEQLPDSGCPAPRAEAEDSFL

PDGFRβ, sequence (Q05030 32-1097): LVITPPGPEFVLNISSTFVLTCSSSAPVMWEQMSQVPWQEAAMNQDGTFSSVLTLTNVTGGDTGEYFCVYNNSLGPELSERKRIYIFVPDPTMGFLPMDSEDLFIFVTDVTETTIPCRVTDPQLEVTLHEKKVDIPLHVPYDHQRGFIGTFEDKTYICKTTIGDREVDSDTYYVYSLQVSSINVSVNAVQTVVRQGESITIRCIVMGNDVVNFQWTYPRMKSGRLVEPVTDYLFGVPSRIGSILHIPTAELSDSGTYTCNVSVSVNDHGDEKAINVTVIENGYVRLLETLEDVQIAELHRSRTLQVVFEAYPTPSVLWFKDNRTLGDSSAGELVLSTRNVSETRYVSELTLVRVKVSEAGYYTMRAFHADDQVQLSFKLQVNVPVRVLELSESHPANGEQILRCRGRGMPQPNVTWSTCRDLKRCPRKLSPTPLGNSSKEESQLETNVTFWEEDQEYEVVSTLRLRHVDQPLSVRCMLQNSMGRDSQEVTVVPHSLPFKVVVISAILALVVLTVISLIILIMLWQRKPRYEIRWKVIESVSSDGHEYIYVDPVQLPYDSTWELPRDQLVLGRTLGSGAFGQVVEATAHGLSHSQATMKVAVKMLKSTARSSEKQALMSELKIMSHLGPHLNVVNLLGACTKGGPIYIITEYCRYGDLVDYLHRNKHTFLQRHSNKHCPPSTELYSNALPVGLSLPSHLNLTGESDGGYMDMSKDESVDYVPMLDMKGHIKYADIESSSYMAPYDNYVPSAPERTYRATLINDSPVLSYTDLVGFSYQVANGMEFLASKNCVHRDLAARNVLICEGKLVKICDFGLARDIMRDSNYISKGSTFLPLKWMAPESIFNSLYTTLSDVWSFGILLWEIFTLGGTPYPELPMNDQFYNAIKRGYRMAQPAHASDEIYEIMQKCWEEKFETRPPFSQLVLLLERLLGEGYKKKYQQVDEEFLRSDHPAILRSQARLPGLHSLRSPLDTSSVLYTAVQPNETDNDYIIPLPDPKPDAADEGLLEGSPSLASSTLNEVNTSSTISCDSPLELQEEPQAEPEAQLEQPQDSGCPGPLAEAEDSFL
VEGFR2, unphosphorylated, sequence (P35968 20-1356): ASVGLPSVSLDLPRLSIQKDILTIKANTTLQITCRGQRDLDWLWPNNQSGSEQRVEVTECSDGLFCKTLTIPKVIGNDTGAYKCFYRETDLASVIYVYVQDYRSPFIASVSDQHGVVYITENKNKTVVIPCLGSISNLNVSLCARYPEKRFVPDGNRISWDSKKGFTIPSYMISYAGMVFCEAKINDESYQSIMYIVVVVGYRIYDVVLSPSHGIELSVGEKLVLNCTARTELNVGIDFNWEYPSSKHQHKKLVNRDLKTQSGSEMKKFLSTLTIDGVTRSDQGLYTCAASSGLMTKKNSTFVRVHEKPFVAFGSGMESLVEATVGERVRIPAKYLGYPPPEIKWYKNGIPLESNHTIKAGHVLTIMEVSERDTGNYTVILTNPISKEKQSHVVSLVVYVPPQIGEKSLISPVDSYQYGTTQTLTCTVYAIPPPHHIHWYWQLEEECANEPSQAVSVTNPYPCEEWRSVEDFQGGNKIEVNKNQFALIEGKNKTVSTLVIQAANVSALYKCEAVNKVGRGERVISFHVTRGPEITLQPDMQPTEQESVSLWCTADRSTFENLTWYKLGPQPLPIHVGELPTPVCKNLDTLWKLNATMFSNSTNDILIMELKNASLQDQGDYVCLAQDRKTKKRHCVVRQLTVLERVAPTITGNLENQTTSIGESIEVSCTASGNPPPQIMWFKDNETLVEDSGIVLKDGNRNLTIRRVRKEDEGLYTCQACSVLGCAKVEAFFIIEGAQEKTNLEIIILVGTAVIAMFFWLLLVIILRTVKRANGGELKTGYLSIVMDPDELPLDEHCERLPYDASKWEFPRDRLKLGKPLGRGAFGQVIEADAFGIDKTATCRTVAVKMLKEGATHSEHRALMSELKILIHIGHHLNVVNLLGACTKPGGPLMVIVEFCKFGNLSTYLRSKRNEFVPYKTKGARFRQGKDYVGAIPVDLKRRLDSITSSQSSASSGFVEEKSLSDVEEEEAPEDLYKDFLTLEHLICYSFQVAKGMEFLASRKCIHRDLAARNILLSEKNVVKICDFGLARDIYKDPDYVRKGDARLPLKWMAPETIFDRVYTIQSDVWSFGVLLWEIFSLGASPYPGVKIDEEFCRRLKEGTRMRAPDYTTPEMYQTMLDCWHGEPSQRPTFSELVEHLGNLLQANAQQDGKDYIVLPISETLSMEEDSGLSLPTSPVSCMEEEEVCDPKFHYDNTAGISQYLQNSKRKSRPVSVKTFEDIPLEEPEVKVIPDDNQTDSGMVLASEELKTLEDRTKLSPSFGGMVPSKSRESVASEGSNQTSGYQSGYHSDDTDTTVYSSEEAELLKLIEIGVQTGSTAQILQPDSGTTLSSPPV

| SMILES | IC50 [1] [nM] | IC50 [2] [nM] | IC50 [3] [nM] |
| --- | --- | --- | --- |
| Cc1ncc(NC(=O)CNC2(C)CCC2)cc1NC(=O)c1cnn2cc(-c3cnn4c3OCCC4)sc12 [Example 495, 2-(6,7-dihydro-5H-pyrazolo[5,1-b][1,3]oxazin-3-yl)-N-(2-methyl-5-(2-((1-methylcyclobutyl)amino)acetamido)pyridin-3-yl)pyrazolo[5,1-b]thiazole-7-carboxamide] | 3.8 | > 7500 | 2.5 |
| Cc1ncc(NC(=O)OC[C@@H]2CCCN2C)cc1NC(=O)c1cnn2cc(-c3cn(C)nc3C)sc12 [Example 496, (S)-(1-methylpyrrolidin-2-yl)methyl (5-(2-(1,3-dimethyl-1H-pyrazol-4-yl)pyrazolo[5,1-b]thiazole-7-carboxamido)-6-methylpyridin-3-yl)carbamate] | 5.6 | > 7500 | 2.8 |
